Legend:
[1] = tested on: human phosphodiesterase III (PDE III); assay: PDE III inhibition; type: biochemical; settings: more potent than anagrelide
Description: In early volunteer trials, the most frequently reported adverse effects AEs other than headache were palpitations, postural dizziness and nausea. During patient studies, the most frequently reported drug-related AEs were headache, palpitations, oedema/fluid retention, nausea/vomiting, diarrhea, dizziness and abdominal pain. These effects are all likely to arise from the secondary, cardiovascular pharmacology associated with anagrelide resulting from its inhibitory effects on human phosphodiesterase III (PDE III). […] Inhibition of myocardial PDE III leads to positive inotropy (increasing of the force of contractions of the heart), increased chronotropy (increase in heart rate), and peripheral vasodilatation. Such cardiovascular manifestations of this inhibition are typically seen with the classical positive inotropes, milrinone and enoximone, and exploited in the short-term acute treatment of congestive heart failure. However, in the treatment of a so-called silent disease (i.e., asymptomatic) such as ET, the cardiovascular side-effects of palpitations and tachycardia associated with anagrelide limit its utility and a significant proportion of patients—reportedly between 25 and 50%—fail to tolerate the drug during long term treatment.

[2] = Pharmacokinetics and exposure in humans; type: in vivo, human; settings: typical exposures, greater than anagrelide
Description: The PDE III inhibitory properties of anagrelide are quite distinct from its platelet lowering anti-megakaryocytic effects. Indeed studies have shown no correlation between potency as a PDE III inhibitor and anti-megakaryocytic effects for anagrelide and its principal pharmacologically active metabolite, 3-hydroxyanagrelide (3-OH anagrelide or 3-HA, formerly known as SPD604 or BCH24426). […] Anagrelide's active metabolite, 3-HA, is present in vivo in amounts greatly exceeding those of the parent drug with typical exposures being 2-3 fold greater. Thus by implication 3-OH anagrelide is likely to be a major contributor to the pharmacological actions of the drug.
In addition to the unwanted cardiovascular effects associated with PDE III inhibition, the consequent elevation of cAMP can result in an anti-aggregatory effect. While initially this property may appear to be beneficial in essential thrombocythemia patients predisposed to greater thrombotic risk, such anti-platelet effects, in excess, could have haemorrhagic consequences and on balance may not be desirable. […]

[3] = tested on: TPO-induced megakaryocytopoiesis; settings: cited from earlier work
[4] = cited from earlier work
[5] = tested on: erythroid or myelomonocytic differentiation; settings: stimulated by erythropoietin or granulocyte-macrophage colony-stimulating factor; cited from earlier work
[6] = molecular target: human phosphodiesterase III (PDE III); settings: cited from earlier work

potency as PDE III inhibitor relative to anagrelide [1]	exposure in vivo relative to parent drug [2]	Structure (SMILES)	potency in inhibition of megakaryocytopoiesis relative to parent drug ([3]; compared with anagrelide)	half-life ([4]; typical) [h]	IC50 ([3]; estimated, in vitro human megakaryocytopoiesis, read-out: IC50 for inhibition of TPO-induced megakaryocytopoiesis) [nM]	effect on erythroid or myelomonocytic differentiation [5]	IC50 [6] [nM]	first pass effect ([4]; in vivo) [%]
over 40 fold	2-3 fold	O=C1NC2=Nc3ccc(Cl)c(Cl)c3CN2C1O (stereo not drawn) [3-hydroxyanagrelide]	no more potent than the parent drug	2.5				
		O=C1CN2Cc3c(ccc(Cl)c3Cl)N=C2N1 [Anagrelide, 6,7-dichloro-1,5-dihydroimidazo[2,1-b]-quinazolin-2(3H)-one]			~26	does not affect	~29	> 50
		Cc1[nH]c(=O)c(C#N)cc1-c1ccncc1 [milrinone]					170 to 350	
